This experiment relates to MV-4-11 cells. As to the kind of experiment: Gene expression microarray analysis (Affymetrix PrimeView) and GSEA. More on the design: RFU PODN (11730768_x_at) / Fold change /veh PODN (11730768_x_at) / RFU LINC00158 (11744669_a_at) / Fold change /veh LINC00158 (11744669_a_at) / RFU DUSP10 (11751237_a_at) / Fold change /veh DUSP10 (11751237_a_at) / RFU ID3 (11757404_x_at) / Fold change /veh ID3 (11757404_x_at) / RFU PLEKHG5 (11737974_s_at) / Fold change /veh PLEKHG5 (11737974_s_at) / RFU LRRC4B (11730491_at) / Fold change /veh LRRC4B (11730491_at) / RFU GIMAP4 (11747438_a_at) / Fold change /veh GIMAP4 (11747438_a_at) / RFU KRT8 (11758183_x_at) / Fold change /veh KRT8 (11758183_x_at) / RFU CNN1 (11734310_a_at) / Fold change /veh CNN1 (11734310_a_at) / RFU VPS37D (11726825_at) / Fold change /veh VPS37D (11726825_at) / RFU C10orf10 (11716522_x_at) / Fold change /veh C10orf10 (11716522_x_at) / RFU KIR2DL2 /// KIR2DL4 /// KIR2DL5A /// KIR2DL5B /// KIR2DS1 /// KIR2DS2 /// KIR2DS3 /// KIR2DS4 /// KIR3DL3 /// KIR3DL3 /// KIR3DS1 (11738374_at) / Fold change /veh KIR2DL2 /// KIR2DL4 /// KIR2DL5A /// KIR2DL5B /// KIR2DS1 /// KIR2DS2 /// KIR2DS3 /// KIR2DS4 /// KIR3DL3 /// KIR3DL3 /// KIR3DS1 (11738374_at) / RFU C1QL1 (11718748_at) / Fold change /veh C1QL1 (11718748_at) / RFU TMPRSS4 (11747572_a_at) / Fold change /veh TMPRSS4 (11747572_a_at) / RFU HAMP (11756126_x_at) / Fold change /veh HAMP (11756126_x_at) / RFU RNFT2 (11725882_a_at) / Fold change /veh RNFT2 (11725882_a_at) / RFU NR4A2 (11747474_a_at) / Fold change /veh NR4A2 (11747474_a_at) / RFU ABCC12 (11746883_a_at) / Fold change /veh ABCC12 (11746883_a_at) / RFU TMEM136 (11760407_x_at) / Fold change /veh TMEM136 (11760407_x_at) / RFU CLDN22 /// WWC2 (11732394_at) / Fold change /veh CLDN22 /// WWC2 (11732394_at) / RFU HLA-DPB1 (11760878_x_at) / Fold change /veh HLA-DPB1 (11760878_x_at) / RFU SPINT1 (11716480_a_at) / Fold change /veh SPINT1 (11716480_a_at) / RFU GAP43 (11754022_s_at) / Fold change /veh GAP43 (11754022_s_at) / RFU A4GNT (11735810_at) / Fold change /veh A4GNT (11735810_at) / RFU PRB3 (11715151_x_at) / Fold change /veh PRB3 (11715151_x_at) / RFU TUBB4B (11761932_at) / Fold change /veh TUBB4B (11761932_at) / RFU CAPN14 (11732068_a_at) / Fold change /veh CAPN14 (11732068_a_at) / RFU TMCC2 (11721928_a_at) / Fold change /veh TMCC2 (11721928_a_at) / RFU IRGQ (11745062_a_at) / Fold change /veh IRGQ (11745062_a_at) / RFU FAM174B (11720279_a_at) / Fold change /veh FAM174B (11720279_a_at) / RFU TMPRSS4 (11748680_a_at) / Fold change /veh TMPRSS4 (11748680_a_at) / RFU FAM212B (11763350_a_at) / Fold change /veh FAM212B (11763350_a_at) / RFU PLEKHG5 (11743358_a_at) / Fold change /veh PLEKHG5 (11743358_a_at) / RFU ZSCAN30 (11745921_a_at) / Fold change /veh ZSCAN30 (11745921_a_at) / RFU CMKLR1 (11741424_a_at) / Fold change /veh CMKLR1 (11741424_a_at) / RFU LOC101060620 /// MAPK8IP1 (11723275_at) / Fold change /veh LOC101060620 /// MAPK8IP1 (11723275_at) / RFU SPTSSB (11747773_x_at) / Fold change /veh SPTSSB (11747773_x_at) / RFU PRSS12 (11739890_at) / Fold change /veh PRSS12 (11739890_at) / RFU BIN1 (11741810_x_at) / Fold change /veh BIN1 (11741810_x_at) / RFU WNT11 (11732464_a_at) / Fold change /veh WNT11 (11732464_a_at) / RFU C10orf10 (11716521_a_at) / Fold change /veh C10orf10 (11716521_a_at) / RFU C5orf56 (11738089_at) / Fold change /veh C5orf56 (11738089_at) / RFU CYB561 (11721691_x_at) / Fold change /veh CYB561 (11721691_x_at) / RFU ANKRD19P (11752326_a_at) / Fold change /veh ANKRD19P (11752326_a_at) / RFU OR2T12 /// OR2T33 /// OR2T8 (11738714_s_at) / Fold change /veh OR2T12 /// OR2T33 /// OR2T8 (11738714_s_at) / RFU VCAN (11748164_a_at) / Fold change /veh VCAN (11748164_a_at) / RFU JSRP1 (11732532_at) / Fold change /veh JSRP1 (11732532_at) / RFU KRTAP10-11 (11738290_x_at) / Fold change /veh KRTAP10-11 (11738290_x_at) / RFU MYO3A (11730013_a_at) / Fold change /veh MYO3A (11730013_a_at) / RFU EBF3 (11725865_a_at) / Fold change /veh EBF3 (11725865_a_at) / RFU CAMK2N1 (11719241_x_at) / Fold change /veh CAMK2N1 (11719241_x_at) / RFU C5orf56 (11738088_a_at) / Fold change /veh C5orf56 (11738088_a_at) / RFU OLFML3 (11715873_a_at) / Fold change /veh OLFML3 (11715873_a_at) / RFU LOC100653217 /// NTM (11731650_a_at) / Fold change /veh LOC100653217 /// NTM (11731650_a_at) / RFU MAPK11 (11762145_a_at) / Fold change /veh MAPK11 (11762145_a_at) / RFU FIZ1 (11724087_x_at) / Fold change /veh FIZ1 (11724087_x_at) / RFU OASL (11726364_x_at) / Fold change /veh OASL (11726364_x_at) / RFU SOX15 (11748057_x_at) / Fold change /veh SOX15 (11748057_x_at) / RFU CD79A (11719716_a_at) / Fold change /veh CD79A (11719716_a_at) / RFU HIST1H1D (11736915_at) / Fold change /veh HIST1H1D (11736915_at) / RFU CASKIN2 (11723855_a_at) / Fold change /veh CASKIN2 (11723855_a_at) / RFU LOC730098 (11760151_x_at) / Fold change /veh LOC730098 (11760151_x_at) / RFU OR4N2 (11742367_at) / Fold change /veh OR4N2 (11742367_at) / RFU PRRT2 (11749266_a_at) / Fold change /veh PRRT2 (11749266_a_at) / RFU SNX32 (11753110_a_at) / Fold change /veh SNX32 (11753110_a_at) / RFU CDHR5 (11726645_a_at) / Fold change /veh CDHR5 (11726645_a_at) / RFU RCAN1 (11760418_a_at) / Fold change /veh RCAN1 (11760418_a_at) / RFU FAM167A (11723789_a_at) / Fold change /veh FAM167A (11723789_a_at) / RFU FAM26E (11764081_at) / Fold change /veh FAM26E (11764081_at) / RFU ISYNA1 (11749810_s_at) / Fold change /veh ISYNA1 (11749810_s_at) / RFU ACY1 (11761880_at) / Fold change /veh ACY1 (11761880_at) / RFU 11764098_at / Fold change /veh 11764098_at / RFU SAMD14 (11745864_x_at) / Fold change /veh SAMD14 (11745864_x_at) / RFU NPB (11741838_a_at) / Fold change /veh NPB (11741838_a_at) / RFU TMPRSS6 (11731388_a_at) / Fold change /veh TMPRSS6 (11731388_a_at) / RFU KRTAP10-2 (11738614_at) / Fold change /veh KRTAP10-2 (11738614_at) / RFU ARHGAP8 /// PRR5-ARHGAP8 (11727945_x_at) / Fold change /veh ARHGAP8 /// PRR5-ARHGAP8 (11727945_x_at) / RFU KRTAP5-7 /// NADSYN1 (11734609_at) / Fold change /veh KRTAP5-7 /// NADSYN1 (11734609_at) / RFU RASL12 (11751679_a_at) / Fold change /veh RASL12 (11751679_a_at) / RFU CDKN2B (11736163_a_at) / Fold change /veh CDKN2B (11736163_a_at) / RFU PRF1 (11729649_at) / Fold change /veh PRF1 (11729649_at) / RFU, ZNF638 /// ZNF638-IT1 / Fold change vs veh, ZNF638 /// ZNF638-IT1 / RFU, PANK3 / Fold change vs veh, PANK3 / RFU, SH3YL1 / Fold change vs veh, SH3YL1 / RFU, ZEB2 / Fold change vs veh, ZEB2 / RFU, NRIP1 / Fold change vs veh, NRIP1 / RFU, PTTG1IP / Fold change vs veh, PTTG1IP / RFU, CAPN2 / Fold change vs veh, CAPN2 / RFU, MED14 / Fold change vs veh, MED14 / RFU, SNORA58 / Fold change vs veh, SNORA58 / RFU, C1orf63 / Fold change vs veh, C1orf63 / RFU, LRRFIP1 / Fold change vs veh, LRRFIP1 / RFU, NDUFAF7 / Fold change vs veh, NDUFAF7 / RFU, SLC12A2 / Fold change vs veh, SLC12A2 / RFU, IBTK / Fold change vs veh, IBTK / RFU, ESF1 / Fold change vs veh, ESF1 / Fold change vs veh, TMEM50B / RFU, TAOK1 / Fold change vs veh, TAOK1 / RFU, ACBD3 / Fold change vs veh, ACBD3 / RFU, TMA16 / Fold change vs veh, TMA16 / RFU, RWDD3 / Fold change vs veh, RWDD3 / RFU, BCAT1 / Fold change vs veh, BCAT1 / RFU, EDEM3 / Fold change vs veh, EDEM3 / RFU, TMEM33 / Fold change vs veh, TMEM33 / RFU, WDR75 / Fold change vs veh, WDR75 / RFU, AHCTF1 / Fold change vs veh, AHCTF1 / RFU, TFRC / Fold change vs veh, TFRC / RFU, ZDHHC17 / Fold change vs veh, ZDHHC17 / RFU, NOM1 / Fold change vs veh, NOM1 / RFU, ARL8B / Fold change vs veh, ARL8B / RFU, ZBTB11 / Fold change vs veh, ZBTB11 / RFU, TAMM41 / Fold change vs veh, TAMM41 / RFU, KIAA1704 /// LOC100996395 / Fold change vs veh, KIAA1704 /// LOC100996395 / RFU, ING1 / Fold change vs veh, ING1 / RFU, TRMT61B / Fold change vs veh, TRMT61B / RFU, FUBP3 / Fold change vs veh, FUBP3 / RFU, TP53 / Fold change vs veh, TP53 / RFU, TNKS2 / Fold change vs veh, TNKS2 / RFU, ZFP14 / Fold change vs veh, ZFP14 / RFU, ACTR2 / Fold change vs veh, ACTR2 / RFU, PPP3R1 / Fold change vs veh, PPP3R1 / RFU, PIK3R1 / Fold change vs veh, PIK3R1 / RFU, HNRNPA1 / Fold change vs veh, HNRNPA1 / RFU, RNF170 / Fold change vs veh, RNF170 / RFU, ZNF28 / Fold change vs veh, ZNF28 / RFU, RNGTT / Fold change vs veh, RNGTT / RFU, OGT / Fold change vs veh, OGT / RFU, BRD1 / Fold change vs veh, BRD1 / RFU, MARS / Fold change vs veh, MARS / RFU, ZNF655 / Fold change vs veh, ZNF655 / RFU, FAHD1 / Fold change vs veh, FAHD1 / RFU, BDP1 / Fold change vs veh, BDP1 / RFU, LRRCC1 / Fold change vs veh, LRRCC1 / RFU, ARID1A / Fold change vs veh, ARID1A / RFU, ZNF146 / Fold change vs veh, ZNF146 / RFU, ZNF330 / Fold change vs veh, ZNF330 / RFU, GPN3 / Fold change vs veh, GPN3 / RFU, C9orf123 / Fold change vs veh, C9orf123 / RFU, N4BP2L2 / Fold change vs veh, N4BP2L2 / RFU, ARFIP1 / Fold change vs veh, ARFIP1 / RFU, FAM179B / Fold change vs veh, FAM179B / RFU, BCL10 / Fold change vs veh, BCL10 / RFU, UHRF1BP1L / Fold change vs veh, UHRF1BP1L / RFU, BET1 / Fold change vs veh, BET1 / RFU, CNOT2 / Fold change vs veh, CNOT2 / RFU, ZNF268 / Fold change vs veh, ZNF268 / Fold change vs veh, ZNF507 / RFU, DGCR2 / Fold change vs veh, DGCR2 / RFU, WDSUB1 / Fold change vs veh, WDSUB1 / Fold change vs veh, HSP90B1 /// MIR3652 / RFU, ADSS / Fold change vs veh, ADSS / RFU, GK / Fold change vs veh, GK / RFU, ZNF148 / Fold change vs veh, ZNF148 / RFU, TAF9 / Fold change vs veh, TAF9 / RFU, SLC1A5 / Fold change vs veh, SLC1A5 / RFU, SLMO2 / Fold change vs veh, SLMO2 / RFU, ABCC4 / Fold change vs veh, ABCC4 / RFU, LOC101060439 /// RAP1B / Fold change vs veh, LOC101060439 /// RAP1B / RFU, RFX7 / Fold change vs veh, RFX7 / RFU, GTPBP10 / Fold change vs veh, GTPBP10 / RFU, CNEP1R1 / Fold change vs veh, CNEP1R1 / RFU, BIVM-ERCC5 /// ERCC5 / Fold change vs veh, BIVM-ERCC5 /// ERCC5 / RFU, ILF3 / Fold change vs veh, ILF3 / RFU 11762660_at / Fold change /veh 11762660_at / RFU VCAN (11757783_s_at) / Fold change /veh VCAN (11757783_s_at) / RFU DDX43 (11728927_at) / Fold change /veh DDX43 (11728927_at) / RFU KRT8 (11758188_x_at) / Fold change /veh KRT8 (11758188_x_at) / RFU NKD1 (11759106_at) / Fold change /veh NKD1 (11759106_at) / RFU SRD5A1 (11742802_a_at) / Fold change /veh SRD5A1 (11742802_a_at) / RFU TPSAB1 /// TPSB2 (11721975_s_at) / Fold change /veh TPSAB1 /// TPSB2 (11721975_s_at) / RFU GSTM3 (11746129_a_at) / Fold change /veh GSTM3 (11746129_a_at) / RFU IL23R (11737362_x_at) / Fold change /veh IL23R (11737362_x_at) / RFU TMEM51 (11727254_a_at) / Fold change /veh TMEM51 (11727254_a_at) / RFU PIWIL2 (11732686_x_at) / Fold change /veh PIWIL2 (11732686_x_at) / RFU ORM1 (11744905_x_at) / Fold change /veh ORM1 (11744905_x_at) / RFU CCDC152 (11743942_at) / Fold change /veh CCDC152 (11743942_at) / RFU ECM1 (11717891_a_at) / Fold change /veh ECM1 (11717891_a_at) / RFU IL23R (11748794_a_at) / Fold change /veh IL23R (11748794_a_at) / RFU TNFAIP8L3 (11732012_x_at) / Fold change /veh TNFAIP8L3 (11732012_x_at) / RFU MBOAT4 (11741988_at) / Fold change /veh MBOAT4 (11741988_at) / RFU 11764193_at / Fold change /veh 11764193_at / RFU TMEM53 (11763286_at) / Fold change /veh TMEM53 (11763286_at) / RFU MAGEB2 (11727129_at) / Fold change /veh MAGEB2 (11727129_at) / RFU TMEM200A (11744735_a_at) / Fold change /veh TMEM200A (11744735_a_at) / RFU CCDC152 (11751479_a_at) / Fold change /veh CCDC152 (11751479_a_at) / RFU FAM211A (11726209_a_at) / Fold change /veh FAM211A (11726209_a_at) / RFU RGS16 (11746705_a_at) / Fold change /veh RGS16 (11746705_a_at) / RFU VCAN (11755009_s_at) / Fold change /veh VCAN (11755009_s_at) / RFU RHOB (11743442_s_at) / Fold change /veh RHOB (11743442_s_at) / RFU RGS16 (11720943_a_at) / Fold change /veh RGS16 (11720943_a_at) / RFU RGS16 (11720944_at) / Fold change /veh RGS16 (11720944_at) / RFU, VPS4B / Fold change vs veh, VPS4B / RFU, CREB1 / Fold change vs veh, CREB1 / RFU, DNAJC13 / Fold change vs veh, DNAJC13 / RFU, GNAQ / Fold change vs veh, GNAQ / RFU, CDK5R1 / Fold change vs veh, CDK5R1 / RFU, ZRANB3 / Fold change vs veh, ZRANB3 / RFU, CUL4A / Fold change vs veh, CUL4A / RFU, CCNY / Fold change vs veh, CCNY / RFU, UFL1 / Fold change vs veh, UFL1 / RFU, COG3 / Fold change vs veh, COG3 / RFU, DIAPH2 / Fold change vs veh, DIAPH2 / RFU, SKA2 / Fold change vs veh, SKA2 / RFU, AFF3 / Fold change vs veh, AFF3 / RFU, LMF1 / Fold change vs veh, LMF1 / RFU, IPO11 / Fold change vs veh, IPO11 / RFU, DFFB / Fold change vs veh, DFFB / RFU, FOXP1 / Fold change vs veh, FOXP1 / RFU, CARD8 / Fold change vs veh, CARD8 / RFU, STRN3 / Fold change vs veh, STRN3 / RFU, ADK / Fold change vs veh, ADK / RFU, RASSF2 / Fold change vs veh, RASSF2 / RFU, WIPF1 / Fold change vs veh, WIPF1 / RFU, LARP1B / Fold change vs veh, LARP1B / RFU, RASA1 / Fold change vs veh, RASA1 / RFU, RB1 / Fold change vs veh, RB1 / RFU, PPFIA1 / Fold change vs veh, PPFIA1 / RFU, MAT2A / Fold change vs veh, MAT2A / RFU, CCT5 / Fold change vs veh, CCT5 / RFU, WDR92 / Fold change vs veh, WDR92 / RFU, CUX1 / Fold change vs veh, CUX1 / RFU, TTC7A / Fold change vs veh, TTC7A / RFU, TMEM135 / Fold change vs veh, TMEM135 / RFU, DEPTOR / Fold change vs veh, DEPTOR / RFU, CPM / Fold change vs veh, CPM / RFU, DNAJB6 / Fold change vs veh, DNAJB6 / RFU, CACNA2D3 / Fold change vs veh, CACNA2D3 / RFU, DTX4 / Fold change vs veh, DTX4 / RFU, TFCP2 / Fold change vs veh, TFCP2 / RFU, GMCL1 /// GMCL1P1 / Fold change vs veh, GMCL1 /// GMCL1P1 / RFU, AEBP2 / Fold change vs veh, AEBP2 / RFU, SNHG1 /// SNORD22 /// SNORD25 /// SNORD26 /// SNORD27 /// SNORD28 /// SNORD29 /// SNORD31 / Fold change vs veh, SNHG1 /// SNORD22 /// SNORD25 /// SNORD26 /// SNORD27 /// SNORD28 /// SNORD29 /// SNORD31 / Fold change (Aza/veh), C12orf56 (ProbeSet 11735607_a_at) / Fold change (ACY-1035/veh), C12orf56 (ProbeSet 11735607_a_at) / Fold change (Aza/veh), FGFR1OP (ProbeSet 11751329_s_at) / Fold change (ACY-1035/veh), FGFR1OP (ProbeSet 11751329_s_at) / Fold change (Aza/veh), VPS36 (ProbeSet 11739960_a_at) / Fold change (ACY-1035/veh), VPS36 (ProbeSet 11739960_a_at) / RFU SYPL1 (11715823_x_at) / Fold change /veh SYPL1 (11715823_x_at) / RFU IGFBP7 (11715501_s_at) / Fold change /veh IGFBP7 (11715501_s_at) / RFU REEP3 (11722064_at) / Fold change /veh REEP3 (11722064_at) / RFU IGLL1 (11728026_x_at) / Fold change /veh IGLL1 (11728026_x_at): dose or concentration left out as unconfirmed. The settings on record: ProbeSet 11728271_at; LIST B. Type of experiment: cell-based, human.

For the compound `Nc1ncn([C@@H]2O[C@H](CO)[C@@H](O)[C@H]2O)c(=O)n1` [azacitidine], the “Fold change vs veh, ZNF330” value turned out to be 0.94.

The record behind these values is article PMC5218480 (PLoS ONE, 2017).
